The values that follow come from US8188121B2, “Substituted pyridines as antiparasitic AZA teraryl compounds” (The University of North Carolina at Chapel Hill, priority 2005, dated 2012).

Where a name gives a salt, the structure may show the parent alone. Read-outs that look alike come from different tables or passages of the source.

The subject of one series is L-6 rat mycoblast cells. The experiment in a line: cells. As to the method: (§1) In vitro antiprotozoal activities were measured following established protocols. See Ismail, M. A., et al., J. Med. Chem., 46, 4761-4769 (2003); Stephens, C. E., et al., Bioorg. Med. Chem. Lett., 13, 2065-2069 (2003) (in vitro assay against Leishmania donovani).
(§2) Testing methods are as described above in Example 17.

The subject of series [1] is Trypanosoma brucei rhodesiense (T. b. r.). The series is described as follows: In vitro antiprotozoal activity against T. b. r. Type of series: cell-based. Here is the method: as §1, §2
For series [2], the system named is Plasmodium falciparum (P. f.). The experiment in a line: In vitro antiprotozoal activity against P. f. The series is classed as cell-based. Here is the method: as §1, §2
For series [3], the system named is STIB 900 strain of Trypanosoma brucei rhodesiense. The experiment in a line: T. b. r. STIB 900 mouse model. The note with it: for responders at 100 mg/kg / responders at 20 mg/kg: Trypanosoma brucei, 1440 h; for responders at 100 mg/kg: read-out: Cures; for responders at 20 mg/kg: read-out: Cures (converted). Type of series: in vivo. Here is the method: The activities of compounds 20, 18, 21, 48, 23c, 24c, 5, 4, and 10 against the STIB 900 strain of Trypanosoma brucei rhodesiense (T. b. r.) in a mouse model are shown in Table 3. […] Groups of four mice were infected intraperitoneally with 2×10^5 bloodstream forms of T. b. r. STIB 900 which originates from a patient in Tanzania. On days 3, 4, 5, and 6 post-infection the experimental groups were treated with the indicated compound, either by the intraperitoneal route, or for prodrugs, by the oral route. Usually the highest tolerated dose was used. The highest tolerated dose was determined in a pretoxicological experiment.
Parasitemia of the mice was checked daily up to day 14 post-infection and thereafter 2 times per week up to day 60. One group of mice was not treated and acted as control. Untreated control animals expire between day 7 and 8 post-infection. For relapsing mice, the day of death was recorded and the survival time determined. For the data shown in Table 3, cures reflect the number of mice that survive and are parasite free for 60 days. Survival reflects the average days of survival.
as §2

[4] abbreviates: Rattus norvegicus, L6, read-out: CT IC50.
The mark [5] stands for this setting: Trypanosoma brucei, RHODESIENSE, Table 1, k/K = thousand, read-out: T. b. r. IC50.
Setting [6] is: Plasmodium falciparum, Table 1, k/K = thousand.
Where [7] appears, read: 100 mg/kg po, days 3-6 post-infection, average days of survival.
Where [8] appears, read: 100 mg/kg po, days 3-6 post-infection, mice surviving parasite free for 60 days, groups of four.
The mark [9] stands for this setting: 20 mg/kg ip, days 3-6 post-infection, average days of survival.
Where [10] appears, read: 20 mg/kg ip, days 3-6 post-infection, mice surviving parasite free for 60 days, groups of four.
The mark [11] stands for this setting: read-out: CT IC50, Table 1, L-6 cells.
The mark [12] stands for this setting: Table 1, k/K = thousand, read-out: T. b. r. IC50.
[13] abbreviates: Rattus norvegicus, L6, read-out: CT IC50, Table 1, L-6 cells.
The mark [14] stands for this setting: Table 2, K = thousand, read-out: T. b. r. IC50.

As for `N=C(NO)c1ccc(-c2ccc(-c3ccc(C(=N)NO)o3)cc2)cc1` [Compound 3, N-Hydroxy-5-[4′-(N-hydroxyamidino)-biphenyl-4-yl]-furan-2-carboxamidine], the IC50 (commonly the concentration that inhibits the measured activity by half) in the series on L-6 rat mycoblast cells (setting [4]) was determined as 106 µM; in series [1] (setting [5]), 67 µM; in series [2] (setting [6]), 6.6 µM.

In the case of `CONC(=N)c1ccc(-c2ccc(-c3ccc(C(=N)NOC)o3)cc2)cc1` [Compound 4, N-Methoxy-5-[4′-(N-methoxyamidino)-biphenyl-4-yl]-furan-2-carboxamidine], the concentration for half-maximal inhibition (IC50) is over 206 µM with L-6 rat mycoblast cells (setting [4]), 24 µM in series [1] (setting [5]) and 1.6 µM in series [2] (setting [6]). In series [3] (setting [7]), the Survival turned out to be 29 days. For the same compound, the responders at 100 mg/kg in series [3] (setting [8]) came to 0%.

As to `CC(=O)O.N=C(N)c1ccc(-c2ccc(-c3ccc(C(=N)N)o3)cc2)cc1` [Compound 5, 5-(4′-Amidinobiphenyl-4-yl)-furan-2-carboxamidine acetate salt], the half-maximal inhibitory concentration (IC50) in the series with L-6 rat mycoblast cells (setting [4]) turned out to be 2 µM; in series [1] (setting [5]) it was 0.005 µM; in series [2] (setting [6]), 0.001 µM. This compound had a Survival in series [3] (setting [9]) of 21.25 days. Besides, in series [3] (setting [10]), the responders at 20 mg/kg is 0%.

For `NC(=NO)c1ccc(-c2ccc(-c3ccc(C(N)=NO)cc3)cc2)cc1` [Compound 18, [1,1′;4′,1″]Terphenyl-4,4″-bis-N-hydroxycarboxamidine], the IC50 in the series on L-6 rat mycoblast cells (setting [11]) is over 212 µM; in series [1] (setting [12]) it was 22.8 µM; in series [2] (Table 1, k/K = thousand), over 118 µM. In series [3] (setting [7]), this compound registered a Survival of 24.75 days. Further, the Cures in series [3] (setting [8]) is 0/4.

In the case of `CON=C(N)c1ccc(-c2ccc(-c3ccc(C(N)=NOC)cc3)cc2)cc1` [Compound 21, [1,1′;4′,1″]Terphenyl-4,4″-bis-N-methoxycarboxamidine], the IC50 stood at 118 µM in the series on L-6 rat mycoblast cells (setting [4]), 13.8 µM in series [1] (setting [5]) and 0.371 µM in series [2] (setting [6]). For the same compound, in series [3] (setting [7]), the Survival is given as 20.75 days. The responders at 100 mg/kg in series [3] (setting [8]) stood at 0%.

On to `CC(=O)O.N=C(N)c1ccc(-c2ccc(-c3ccc(C(=N)N)cc3)nc2)cc1` [Compound 23c, Phenyl[1,1′]pyridyl[4′,1″]phenyl-4,4″-bis-carboxamidine acetate salt], for which the IC50 is 49.9 µM with L-6 rat mycoblast cells (setting [11]); 0.002 µM in series [1] (setting [12]); 0.01 µM in series [2] (Table 1, k/K = thousand). The Survival in series [3] (setting [9]) was over 60 days. Also, in series [3] (setting [10]), the Cures is 4/4.

As for `NC(=NO)c1ccc(-c2ccc(-c3ccc(C(N)=NO)cc3)c(F)c2)cc1` [Compound 24a, 2′-Fluoro-[1,1′;4′,1″]terphenyl-4,4″-bis-N-hydroxycarboxamidine], the IC50 was 29.1 µM in the series on L-6 rat mycoblast cells (setting [11]); over 201 µM in series [1] (setting [12]); 0.925 µM in series [2] (Table 1, k/K = thousand).

As for `NC(=NO)c1ccc(-c2ccc(-c3ccc(C(N)=NO)cc3)c(C(F)(F)F)c2)cc1` [Compound 24b, 2′-Trifluoromethyl-[1,1′;4′,1″]terphenyl-4,4″-bis-N-hydroxycarboxamidine], the IC50 in the series on L-6 rat mycoblast cells (setting [11]) stood at 13.3 µM; in series [1] (setting [12]), 29.9 µM; in series [2] (Table 1, k/K = thousand) it was 3.1 µM.

Take `CON=C(N)c1ccc(-c2ccc(-c3ccc(C(N)=NOC)cc3)c(F)c2)cc1` [Compound 25a, 2′Fluoro-[1,1′;4′,1″]terphenyl-4,4″-bis-methoxycarboxamidine]: the IC50 was over 51.5 µM in series [1] (setting [12]) and 4.2 µM in series [2] (Table 1, k/K = thousand).

Regarding `CON=C(N)c1ccc(-c2ccc(-c3ccc(C(N)=NOC)cc3)c(C(F)(F)F)c2)cc1` [Compound 25b, 2′-Trifluoromethyl-[4′,1′;4′,1″]terphenyl-4,4″-bis-methoxycarboxamidine], the concentration for half-maximal inhibition (IC50) in the series with L-6 rat mycoblast cells (setting [11]) stood at 42.2 µM; in series [1] (setting [12]), 36.9 µM; in series [2] (Table 1, k/K = thousand), 3.8 µM.

Turning to `CONC(=N)c1ccc(-c2ccc(-c3ccc(C(=N)NOC)cc3)nc2)cc1` [Compound 25c, Phenyl[1,1′]pyridyl[4′,1″]phenyl-4,4″-bis-N-methoxycarboxamidine], the IC50 with L-6 rat mycoblast cells (setting [11]) was over 166 µM; in series [1] (setting [12]) it was 34.7 µM; in series [2] (Table 1, k/K = thousand), 3.2 µM.

As for `N=C(N)c1ccc(-c2cnc(-c3ccc(C(=N)N)cc3)nc2)cc1` [Compound 27, 2,5-Bis-(4′-amidinophenyl)-pyrimidine], the IC50 was found to be 40.9 µM in the series with L-6 rat mycoblast cells (setting [13]) and 0.0005 µM in series [2] (setting [6]).

Consider `CON=C(N)c1ccc(-c2ccc(-c3ccc(C(N)=NOC)nc3)cc2)cn1` [Compound 33, 1,4-Bis-[5′-(N-methoxyamidinopyridin-2′-yl)]phenylene], for which the IC50 in the series on L-6 rat mycoblast cells (setting [11]) was over 158 µM; in series [1] (setting [12]), 82.9 µM; in series [2] (Table 1, k/K = thousand), 1.2 µM.

Consider `N=C(N)c1ccc(Cc2ccc(-c3ccc(C(=N)N)cc3)nc2)cc1` [Compound 36a, 2-(4′-Amidinophenyl)-5-(4″-amidinobenzyl)pyridine acetate salt], for which the half-maximal inhibitory concentration (IC50) in the series with L-6 rat mycoblast cells (setting [11]) was determined as 18.1 µM; in series [1] (setting [12]), 0.041 µM; in series [2] (Table 1, k/K = thousand), 0.011 µM.

As for `NC(=NO)c1ccc(-c2ccc(-c3ccc(C(N)=NO)cc3)c3ccccc23)cc1` [Compound 39, Phenyl[1,1′]naphthyl-[4′,1″]phenyl-4,4″-bis-N-hydroxycarboxamidine], the IC50 in the series with L-6 rat mycoblast cells was 9.4 µM; in series [1] (setting [14]), 13.4 µM; in series [2] (Table 2, K = thousand) it was 9.1 µM.

Turning to `CON=C(N)c1ccc(-c2ccc(-c3ccc(C(N)=NOC)cc3)c3ccccc23)cc1` [Compound 40, Phenyl[1,1′]naphthyl-[4′,1″]phenyl-4,4″-bis-N-methoxycarboxamidine], the IC50 stood at 16.2 µM with L-6 rat mycoblast cells; 29.5 µM in series [1] (setting [14]); 3.9 µM in series [2] (Table 2, K = thousand).

In the case of `CCOC(=O)N=C(N)Nc1ccc(-c2ccc(-c3ccc(NC(N)=NC(=O)OCC)cc3)cc2)cc1` [Compound 50a, 4,4″-Bis(N′-ethoxycarbonyl)-guanidino-[1,1′;4′,1″]terphenyl], the IC50 was over 181 µM in the series on L-6 rat mycoblast cells (setting [11]); 142 µM in series [1] (setting [12]); 1.7 µM in series [2] (Table 1, k/K = thousand).

For the compound `CCOC(=O)N=C(NC)Nc1ccc(-c2ccc(-c3ccc(NC(=NC(=O)OCC)NC)cc3)cc2)cc1` [Compound 50b, 4,4″-Bis(N′-ethoxycarbonyl-N″-methyl)-guanidino-[1,1′;4′,1″]terphenyl], the IC50 in the series with L-6 rat mycoblast cells (setting [11]) was 5.7 µM; in series [1] (setting [12]), 7.5 µM; in series [2] (Table 1, k/K = thousand) it was 8.9 µM.

With `CCOC(=O)N=C(Nc1ccc(-c2ccc(-c3ccc(NC(=NC(=O)OCC)NC(C)C)cc3)cc2)cc1)NC(C)C` [Compound 50c, 4,4″-Bis(N′-ethoxycarbonyl-N″-isopropyl)-guanidino-[1,1′;4′,1″]terphenyl], the IC50 with L-6 rat mycoblast cells (setting [11]) came to 5.3 µM; in series [1] (setting [12]), 14.2 µM; in series [2] (Table 1, k/K = thousand) it was 4.5 µM.

With `CNC(=N)Nc1ccc(-c2ccc(-c3ccc(NC(=N)NC)cc3)cc2)cc1` [Compound 51a, 4,4″-Bis(N′-methyl)-guanidino-[1,1′;4′,1″]terphenyl], the IC50 is 65.1 µM in the series on L-6 rat mycoblast cells (setting [11]); 0.018 µM in series [1] (setting [12]); 0.007 µM in series [2] (Table 1, k/K = thousand).

In the case of `N=C(N)Nc1ccc(-c2ccc(-c3ccc(NC(=N)N)cn3)cc2)nc1` [Compound 55, 1,4-Bis-(5′-guanidinopyridin-2′-yl)phenylene hydrochloride salt], the IC50 was determined as 152 µM in the series on L-6 rat mycoblast cells (setting [13]), 0.169 µM in series [1] (setting [5]) and 0.151 µM in series [2] (setting [6]).

With `CON=C(N)c1ccc(-c2ccc(-c3ccc(C(N)=NOC)nc3)cc2)cn1` [Compound 68, 1,4-Bis-[2′-(N-methoxyamidinopyridin-5′-yl)]-phenylene hydrochloride salt], the IC50 in the series with L-6 rat mycoblast cells (read-out: CT IC50, Table 1, L-6 cells, hydrochloride salt) was over 194 µM; with L-6 rat mycoblast cells (read-out: CT IC50, Table 4, L-6 cells) it was over 193 µM; in series [1] (Table 1, k/K = thousand, hydrochloride salt, read-out: T. b. r. IC50) it was 141 µM; in series [1] (Table 4, read-out: T. b. IC50), 4.57 µM; in series [2] (Table 1, k/K = thousand, hydrochloride salt) it was 5.5 µM; in series [2] (Table 4), 0.637 µM.

As to `CN(C)CC(=O)ON=C(N)c1ccc(-c2ccc(-c3ccc(C(N)=NOC(=O)CN(C)C)nc3)cc2)cn1` [Compound 69, 1,4-Bis-{2′-[N-(N′,N′-dimethylaminoacetoxy)amidinopyridin-5′-yl]}-phenylene], in series [3] (25 mg/kg po, Table 5), the Cures is 0/4 and the Survival is given as 28.25 days.

Compound `N=C(N)c1ccc(OCCCCCOc2ccc(C(=N)N)cc2)cc1` [pentamidine, reference compound] displayed a Survival in series [3] (setting [9]) of 42.7 days. Further, the responders at 20 mg/kg in series [3] (setting [10]) is 0%.
